Results taken from ChEMBL document CHEMBL1134939, “A survey of cyclic replacements for the central diamide moiety of inhibitors of inosine monophosphate dehydrogenase” (Bioorg Med Chem Lett, 2002).

biological target: T1, Inosine-5'-monophosphate dehydrogenase 2 (Homo sapiens, UniProt P12268); assay: Inhibitory concentration required against Inosine Monophosphate Dehydrogenase II (IMPDH II) was determined in vitro at a concentration 500 uM

SMILES | inhibition
COc1cc(Nc2cccc(-c3ccccc3)c2)ccc1-c1cnco1 | 30%

biological target: T1, Inosine-5'-monophosphate dehydrogenase 2; assay: Inhibitory concentration required against Inosine Monophosphate Dehydrogenase II (IMPDH II) was determined in vitro at a concentration 100 uM

SMILES | inhibition
COc1cc(Nc2nc(-c3ccccc3)c[nH]2)ccc1-c1cnco1 | 7%

biological target: T1, Inosine-5'-monophosphate dehydrogenase 2; assay: Inhibition of Inosine Monophosphate Dehydrogenase II (IMPDH II)

SMILES | IC50
COc1cc(Nc2cnc(-c3ccccc3)s2)ccc1-c1cnco1 | 760 nM
COc1cc(Nc2noc(-c3ccccc3)n2)ccc1-c1cnco1 | 59 nM
COc1cc(Nc2nnc(-c3ccccc3)[nH]2)ccc1-c1cnco1 | 190 nM
COc1cc(-c2ccccc2)nc(Nc2ccc(-c3cnco3)c(OC)c2)n1 | 110 nM
COc1cc(Nc2nnc(-c3ccccc3)s2)ccc1-c1cnco1 | 330 nM
COc1cc(Nc2cc(-c3ccccc3)on2)ccc1-c1cnco1 | 120 nM
COc1cc(Nc2nc(-c3ccccc3)cs2)ccc1-c1cnco1 | 300 nM
COc1cc(Nc2nnc(-c3ccccc3)o2)ccc1-c1cnco1 | 44 nM
COc1cc(NC2=NCC(c3ccccc3)O2)ccc1-c1cnco1 (stereo unspecified) | 110 nM
